Test results as given in publication PMC10864208, “Characterizing the protein–protein interaction between MDM2 and 14-3-3σ; proof of concept for small molecule stabilization” (The Journal of Biological Chemistry, 2024).
Where two headings read alike, the source gives them in different places. Blank lines part the entries; values can stand above or below the molecule they belong to. Non-standard residues stand in square brackets, D forms with d. Residues, ends and D or L forms follow the SMILES beside them. pS = N[C@@H](COP(=O)(O)O)C(=O)O

Legend:
14-3-3σ = target: T1, 14-3-3σ (Homo sapiens, UniProt P31947); assay: fluorescence polarization (FP), direct binding to 14-3-3σ; conditions: for maximum polarization level (in words) / binding to 14-3-3σ by FP (in words): FITC-labeled peptide 10 nM; for maximum polarization level (in words): 14-3-3σ titration; for binding to 14-3-3σ by FP (in words): pH 7.5
T1 sequence (P31947 1-248): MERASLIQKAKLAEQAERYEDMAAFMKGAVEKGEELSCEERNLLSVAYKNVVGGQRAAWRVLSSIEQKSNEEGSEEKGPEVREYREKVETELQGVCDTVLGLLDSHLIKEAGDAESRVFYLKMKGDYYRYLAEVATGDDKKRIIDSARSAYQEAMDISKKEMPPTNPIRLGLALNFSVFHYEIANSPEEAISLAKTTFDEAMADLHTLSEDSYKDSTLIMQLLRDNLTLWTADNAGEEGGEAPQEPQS
Method: (§2) For all experiments, a fixed concentration of 10 nM fluorescently labeled peptide (FITC) was used. […] All data was analyzed using GraphPad Prism 7 and sigmoidal curves were fitted using the following equation: Y=Bottom + (Top-Bottom)/(1+10ˆ((Log app.Kd-X)∗HillSlope)), where Y = mP value; X = log 14-3-3 concentration; top and bottom = plateaus in mP.
(§3) Both proteins were prepared via the following procedure:
(§4) For all experiments a fixed concentration of 10 nM fluorescently labelled peptide (FITC) was used. […] All data was analysed using GraphPad Prism 7 and sigmoidal curves were fitted using the following equation:

[1] = tested on: 14-3-3σ/MDM2_159-173^pS166 peptide; assay: FP, FC-A effect on 14-3-3σ/MDM2 159-173 pS166; assay type: binding; conditions: 1.0 mM FC-A, 10 nM FITC-labeled MDM2_159-173^pS166; accurate fit not obtained
Description: (§1) . Red arrows highlight peaks for the ternary complex.

14-3-3 PPIs = conditions: cited from earlier work
Description: To investigate the feasibility of this, the effect of fusicoccin A (FC-A) on the PPI was studied using FP, ITC, and native MS.

14-3-3σ/MDM2 complex = assay: native mass spectrometry, ternary complex with FC-A; assay type: binding; conditions: for relative abundance of ternary complex 14-3-3σ + MDM2 + FC-A (native MS): pH 6.8, SD, n = 3
Method: as §1
14-3-3 σ was buffer exchanged into 100 mM ammonium acetate pH 6.8 using a 30 kDa molecular weight cut-off Amicon Ultra centrifugal filter (Merck Millipore) and stored at −80 °C prior to use. […] . All native MS experiments were performed on an Orbitrap Eclipse Tribrid mass spectrometer (Thermo Fisher Scientific, Bremen) coupled to a nanoelectrospray source that used gold-coated borosilicate glass capillaries, pulled in-house. Positive ionization mode was used throughout with the capillary voltage set to 1.2 kV. The source temperature was set at 275 °C, in-source dissociation at 25, S-lens RF at 100. High pressure mode was used and a mass range of 2000 to 8000 m/z used to monitor the binding equilibria. Mass spectra were acquired using a maximum ion injection time of 50 ms. The automatic gain control was set to 1 x 10^6 and the ions detected in the Orbitrap with resolution set to 7500. All data was analyzed using XCalibur (v.4.1). All proteins and protein complexes were identified based on their theoretical mass.
Analytical grade ammonium acetate and LC-MS grade Dimethyl Sulfoxide (DMSO) were purchased from Fisher Scientific. 14-3-3 σ was buffer exchanged into 100 mM ammonium acetate pH 6.8 using a 30 kDa molecular weight cut-off Amicon Ultra centrifugal filter (Merck Millipore) and stored at -80 °C prior to use. The lyophilised MDM2161-191^pS166/pS186 31mer peptide (see Table S4) was diluted into 100mM ammonium acetate pH 6.8. […] . To quantify each complex, the relative abundance of the complexes observed was assumed to reflect their abundance in solution. Due to overlapping peaks, 15+ ions were excluded from analysis. […] . Standard deviations of the abundance of each complex were calculated from 3 replicates.

14-3-3ζ = target: T2, 14-3-3ζ (Homo sapiens, UniProt P63104); assay: fluorescence polarization (FP), direct binding to 14-3-3ζ
T2 sequence (P63104 1-245): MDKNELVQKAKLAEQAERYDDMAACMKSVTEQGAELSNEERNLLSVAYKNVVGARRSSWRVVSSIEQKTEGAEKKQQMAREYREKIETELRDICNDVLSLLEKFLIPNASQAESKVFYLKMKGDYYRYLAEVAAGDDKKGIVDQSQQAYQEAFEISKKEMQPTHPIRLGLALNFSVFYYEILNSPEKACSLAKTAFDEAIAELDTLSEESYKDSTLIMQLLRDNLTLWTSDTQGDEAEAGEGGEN
Method: as §2, §3, §4

[2] = target: 14-3-3σ/MDM2_179-193^pS186 peptide (Homo sapiens, UniProt P31947+Q00987); assay: biochemical
Method: as §2

14-3-3σ and 14-3-3ζ = assay: ITC, mono-phosphorylated MDM2 peptides; assay type: binding; conditions: N-acetylated peptide 1.0 mM into 14-3-3 100 µM, 25 °C, pH 7.5, Malvern MicroCal ITC200

Molecule: FITC-Ahx-^159SSRRRAISETEENSDELSGERQRKRHK(pS)DSISLSF^193-NH2 (SSRRRAISETEENSDELSGERQRKRHKSDSISLSF; phosphoSer186; FITC label; UniProt Q00987 159-193, looked up, fragment) [MDM2_159-193^pS186]
maximum polarization level (in words) (14-3-3σ): comparable to that observed for the di-phosphorylated MDM2_161-191^pS166/pS186 peptide
binding to 14-3-3σ by FP (in words) (14-3-3σ): much weaker affinity than the 15 amino acid MDM2_179-193^pS186 peptide

Molecule: C=CC(C)(C)OC[C@H]1O[C@H](O[C@@H]2C3=C([C@H](C)COC(C)=O)C[C@H](O)[C@]3(C)/C=C3/[C@@H](COC)CC[C@H]3[C@@H](C)[C@H]2O)[C@H](O)[C@@H](OC(C)=O)[C@@H]1O [FC-A, fusicoccin A]
effect of FC-A on binding (FP, in words) [1]: small effect
stabilization of di-phosphorylated mode I/II motif peptides, e.g. CFTR (in words) (14-3-3 PPIs; ref [27]): shown to stabilize peptides containing mode I/II type di-phosphorylated binding motifs
stabilization of mode III 14-3-3 PPIs (in words) (14-3-3 PPIs; ref [43]): predominantly stabilizes mode III 14-3-3 PPIs
relative abundance of ternary complex 14-3-3σ + MDM2 + FC-A (native MS) (14-3-3σ/MDM2 complex; 14-3-3σ 5 μM : MDM2 10 μM : FC-A 5 μM): 6 ± 3%
relative abundance of ternary complex 14-3-3σ + MDM2 + FC-A (native MS) (14-3-3σ/MDM2 complex; 14-3-3σ 5 μM : MDM2 10 μM : FC-A 25 μM): 15 ± 5%
composition of ternary complex (native MS, in words) (14-3-3σ/MDM2 complex; 14-3-3σ 5 μM, MDM2 peptide 10 μM, FC-A 5 or 25 μM): a 14-3-3 dimer, a single MDM2 di-phosphorylated peptide, and a single FC-A molecule

Molecule: FITC-Ahx-^159SSRRRAI(pS)ETEENSDELSGERQRKRHKSDSISLSF^193-NH2 (SSRRRAISETEENSDELSGERQRKRHKSDSISLSF; phosphoSer166; FITC label; UniProt Q00987 159-193, looked up, fragment) [MDM2_159-193^pS166]
maximum polarization level (in words) (14-3-3σ): small increase in the maximum polarization value
binding to 14-3-3σ by FP (in words) (14-3-3σ): saturation was not observed and an effective Kd value could not be obtained

Kd (14-3-3σ): 26.2 ± 17.9 µM
Kd (14-3-3σ; Kd (FP), duplicate data, duplicate data set (Fig. S1A), 14-3-3σ titrated to 10 nM FITC-labelled peptide, pH 7.5, room temperature, SD, n=3): 22.3 ± 21.5 µM
Kd (14-3-3ζ): 11.4 ± 5.4 µM
Kd [2]: 24.6 ± 12 µM
Molecule: CC[C@H](C)[C@H](NC(=O)[C@H](CO)NC(=O)[C@H](CC(=O)O)NC(=O)[C@H](COP(=O)(O)O)NC(=O)[C@H](CCCCN)NC(=O)[C@H](Cc1c[nH]cn1)NC(=O)[C@H](CCCNC(=N)N)NC(=O)[C@H](CCCCN)NC(=O)[C@H](CCCNC(=N)N)NC(=O)[C@H](CCC(N)=O)NC(=O)[C@H](CCCNC(=N)N)NC(C)=O)C(=O)N[C@@H](CO)C(=O)N[C@@H](CC(C)C)C(=O)N[C@@H](CO)C(=O)N[C@@H](Cc1ccccc1)C(N)=O [MDM2_179-193^pS186] (Ac-RQRKRHK[pS]DSISLSF-NH2)

binding by ITC (in words) (14-3-3σ and 14-3-3ζ): could not be detected
Molecule: AcHN-^159SSRRRAI(pS)ETEENSD^173-NH2 (Ac-SSRRRAI[pS]ETEENSD-NH2; SMILES CC[C@H](C)[C@H](NC(=O)[C@H](C)NC(=O)[C@H](CCCNC(=N)N)NC(=O)[C@H](CCCNC(=N)N)NC(=O)[C@H](CCCNC(=N)N)NC(=O)[C@H](CO)NC(=O)[C@H](CO)NC(C)=O)C(=O)N[C@@H](COP(=O)(O)O)C(=O)N[C@@H](CCC(=O)O)C(=O)N[C@H](C(=O)N[C@@H](CCC(=O)O)C(=O)N[C@@H](CCC(=O)O)C(=O)N[C@@H](CC(N)=O)C(=O)N[C@@H](CO)C(=O)N[C@@H](CC(=O)O)C(N)=O)[C@@H](C)O; UniProt Q00987 159-173, looked up, fragment) [MDM2_159-173^pS166, mono-phosphorylated 15 amino acid peptide spanning residues 159-173]
binding to 14-3-3σ by FP (in words) (14-3-3σ): bound weakly to 14-3-3σ and saturation was not observed
binding to 14-3-3ζ by FP (in words) (14-3-3ζ; FITC-labeled peptide 10 nM, pH 7.5): bound weakly to 14-3-3ζ, and no effective Kd value could be obtained
